Results from patent publication US7700792B2, “Highly active lysophosphatidic acid and method of screening therewith” (Ono Pharmaceutical Co., Ltd., priority 2003, dated 2010).

Key:
isolated urethra of rat = test: Contraction-measuring system using an isolated urethra of rat; conditions: Magnus tube, urethra strips, control high concentration KCl
Protocol: After sacrificing female or male CD (SD) IGS rats (Charles River Japan Inc., 8-9 week-old in use) by blowing heads and exsanguinating from carotid artery and jugular vein, urethra under pubis was isolated carefully and soaked in Krebs-Henseleit solution (112 mM NaCl, 5.9 mM KCl, 2.0 mM CaCl2, 1.2 mM MgCl2, 1.2 mM NaH2PO4, 25.0 mM NaHCO3, 11.5 mM Glucose) immediately. Urethra part was cut from isolated sample, and was dissected flatly and subsequently was cut parallel to circular muscle. Thus, 2-3 strips of sample that are 3-4 mm long by 2-3 mm wide were made from one animal.
The made samples were suspended in the Magnus tube (volume: 10 mL) filled by Krebs-Henseleit solution (vented by 37±1° C., mixed gas [95% O2+5% CO2]). The samples were added about 0.5 g tension and stabilized for 60 min, and subsequently the contractile activity was recorded on recorder (lincarcoder WR3320: GRAPHTEC CORP.) via a pressure amplifier (AP-621G: Nihon Kohden Ltd) from Force displacement transducer (FD pick-up TB-611T; Nihon Kohden Ltd).
The contractile reaction of control was given by stimulation of high concentration KCl solution (solution replaced all NaCl with KCl).

Male CD (SD) IGS rats = test: Increasing urethral pressure measuring system under anesthesia of rat with urethane; assay type: in vivo; conditions: i.v., urethane-anesthetized rat
Excerpt: Male CD (SD) IGS rats (Charles River Japan Inc., 8-9 week-old in use) were anesthetized by subcutaneous administration of urethane (1.2 g/kg). After incision of cervical median, jugular catheter for administration of drug and arterial catheter for measurement of blood pressure were inserted. After incising of hypogastrium median, urethra was tied off in the vicinity of pubic bone. Urethra catheter was inserted into urethra by incision of dome of urinary bladder and fixed by ligation at the bladder neck. Urethra catheter was connected to the pressure tranducer and urethral pressure was measured. Subsequently, urethral pressure was adjusted about 20 mmHg and left until stabilizing (for about 20 minutes).

Compound	contracting effect on the isolated urethra of rat (isolated urethra of rat)	increase of urethral pressure (Male CD (SD) IGS rats; 0.3 mg/kg) [mmHg]	increase of urethral pressure (Male CD (SD) IGS rats; 1.0 mg/kg) [mmHg]
CCCCC[C@@H]1O[C@@H]1C[C@H]1O[C@H]1CCCCCCCC(=O)OC[C@H](O)COP(=O)(O)O [Example 1-1]	contracting effect	5.4	8.5
CCCCC/C=C\C/C=C\CCCCCCCC(=O)OC[C@@H](O)COP(=O)([O-])[O-].[Na+].[Na+] [1-linoleoyl(18:2)-LPA, D(+)-sn-1-o-linoleoyl-glyceryl-3-phosphate. sodium salt, reference compound]		0.6	0.8
